Measured values reported in patent EP0361645B1, “Organic hydrazine derivatives for pharmaceutical use” (ROHM AND HAAS COMPANY, priority 1988, dated 1990).
Where two headings read alike, the source gives them in different places.

Molecular target: T1, ecdysone receptor (Drosophila melanogaster, UniProt P34021)
T1 construct: endogenous in cells; host or cells: Drosophila Kr (Kc) cells, undiluted cytosolic extract
T1 sequence (P34021 1-878): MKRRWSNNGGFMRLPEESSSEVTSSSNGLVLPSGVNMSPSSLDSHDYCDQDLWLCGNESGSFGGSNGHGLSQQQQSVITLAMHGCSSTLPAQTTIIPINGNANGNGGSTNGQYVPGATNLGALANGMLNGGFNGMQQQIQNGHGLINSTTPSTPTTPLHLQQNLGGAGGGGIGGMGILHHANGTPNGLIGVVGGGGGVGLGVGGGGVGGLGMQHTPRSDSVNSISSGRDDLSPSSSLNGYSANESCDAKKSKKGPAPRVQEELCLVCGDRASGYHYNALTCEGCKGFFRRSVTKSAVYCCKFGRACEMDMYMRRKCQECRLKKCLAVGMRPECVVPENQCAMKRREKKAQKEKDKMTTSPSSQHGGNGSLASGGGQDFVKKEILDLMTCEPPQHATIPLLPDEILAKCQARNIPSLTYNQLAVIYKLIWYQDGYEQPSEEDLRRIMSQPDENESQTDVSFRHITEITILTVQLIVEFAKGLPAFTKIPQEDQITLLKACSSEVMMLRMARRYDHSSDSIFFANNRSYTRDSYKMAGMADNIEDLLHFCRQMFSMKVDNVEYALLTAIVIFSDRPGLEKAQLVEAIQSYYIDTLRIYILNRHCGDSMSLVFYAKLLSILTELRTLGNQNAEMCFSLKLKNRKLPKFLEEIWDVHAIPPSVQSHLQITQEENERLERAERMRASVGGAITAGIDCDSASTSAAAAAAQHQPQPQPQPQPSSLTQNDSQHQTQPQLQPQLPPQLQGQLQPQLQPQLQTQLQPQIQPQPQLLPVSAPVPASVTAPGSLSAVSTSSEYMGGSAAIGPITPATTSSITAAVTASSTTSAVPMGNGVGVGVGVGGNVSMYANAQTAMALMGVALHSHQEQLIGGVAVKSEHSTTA
T1 sequence (P20153 1-508 partner): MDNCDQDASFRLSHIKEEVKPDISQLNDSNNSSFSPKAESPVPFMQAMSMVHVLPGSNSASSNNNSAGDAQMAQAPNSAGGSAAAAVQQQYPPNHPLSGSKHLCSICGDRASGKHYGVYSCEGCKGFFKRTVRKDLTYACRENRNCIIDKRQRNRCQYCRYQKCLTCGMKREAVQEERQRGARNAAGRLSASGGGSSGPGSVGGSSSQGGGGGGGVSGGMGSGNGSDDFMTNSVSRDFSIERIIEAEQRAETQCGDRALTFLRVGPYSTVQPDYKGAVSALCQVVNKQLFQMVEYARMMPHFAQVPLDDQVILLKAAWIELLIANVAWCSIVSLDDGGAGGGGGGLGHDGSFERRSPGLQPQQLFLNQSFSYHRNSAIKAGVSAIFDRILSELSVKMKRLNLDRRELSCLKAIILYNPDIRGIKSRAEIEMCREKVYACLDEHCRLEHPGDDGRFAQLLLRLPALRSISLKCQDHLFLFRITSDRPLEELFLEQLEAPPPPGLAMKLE
Test: ^3H-ponasterone A binding to / displacement from Kr cell cytosolic receptor extracts
Description: The invention will now be further described by way of exemplification and by reference to the drawings in which; • Figure 1. Both 20-hydroxyecdysone and Example No. 3 induce process elaboration (A) and inhibition of cell proliferation (B) in Kr cells in a dose-dependent manner. Initial cell density was 2 X 10^6 cells/ml; after incubation of 1 ml aliquots of the cells with the compound for 48 hours the cells were triturated gently and the percentage of cells responding (with processes longer than approximately 17 um, see Cherbas et al. 189 Wilhelm Roux's Arch. 1 (1980)) and total cell density was determined by hemocytom- eter counting, relative to ethanol (1 ul)-treated controls. Determinations were in triplicate for each dose. […] Induction of acetylcholinesterase by varying concentrations of 20-hydroxyecdysone and Example No. 3. Kr cells at an initial density of 3 X 10^6 cells/ml (10 ml per sample) were incubated with the agonist for three days. After harvesting, by centrifugation at 3000 X g, the cell pellets were washed with Robb's Drosophila saline (18, 2 X 5 ml) at 4 ° C, then lysed by sonication in 1 ml of phosphate buffer (pH 7.4, I = 0.1 M) containing 0.5 M NaCI, 0.25 M EDTA and 0.5% TRITON? X-100. See Cherbas, 197 Science 275 (1977). Triton is a registered trademark of Rohm and Haas Company for a alkylaryl polyoxyethylene glycol surfactant. After centrifugation at 16,000 X g, the supernatants were assayed for acetylcholinesterase activity by an adaptation of the method of Ellman et al., 7 Biochem. Pharmacol. 88 (1961), by subtracting out any 412 nm absorbance observed in incubations in the presence of 2 X 10-5 eserine sulfate. Thus reaction mixtures contained 50 ul of enzyme extract, 20 ul eserine (blank tubes only) and 1.0 ml of 0.5 mM acetylthiocholine, 0.3 mM dithiobisnitrobenzoic acid in phosphate buffer (pH 7.4, I = 0.1 M). Incubations were at 25 ° C for two hours; reactions in active tubes were terminated by addition of eserine. Absorbance at 412 nm was then measured. Protein concentration in extracts was measured by the Biorad method. […] Scatchard plot of ^3H-ponasterone A binding to Kr cell cytosolic receptor extracts in the presence of differing concentrations of Example No. 3. Cytosolic extract preparation and ecdysteroid receptor assays were essentially as described in Sage, 111 Meth. in Enzymol. 458 (1985). Example No. 3 was added in 1 ul DMSO to 50 ul of radioligand in 10 mM Tris buffer (pH 7.2) and 50 ul of undiluted cytosol extract. After incubation overnight at 0.5 ° C, bound label was separated from free by addition of 300 ul 1% HCI-washed charcoal (Sigma) and 0.1% Dextran T70 (Pharmacia) in Tris buffer, centrifugation (13,000 X g, 3 min, 4 ° C) and liquid scintillation counting of a 300 ul aliquot of the supernatant in 15 ml Hydrofluor (National Diagnostics). Points are means of duplicate determinations. […] Relative ability of 20 hydroxyecdysone and Example No. 3 to displace ^3H-ponasterone A from cytosolic receptor extracts. Conditions were as in Figure 3 except that only 0.5 nM ponasterone A was used. • Points are means of duplicate determinations. For 20-hydroxyecdysone EC50 = 0.1 uM while for Example No. 3 EC50 = 3.0 uM. Control binding = 10 femtomoles ^3H-ponasterone A bound per mg cytosol protein. • Figure 4. Effects of 10 ppm Example No. 3 administered in artificial diet to newly ecdysed fourth instar (L4) M. sexta, monitoring (A)immunoreactive hemolymph ecdysteroid titers and (B)weight gain. Ecdysteroid titers were measured by a radioimmunoassay adapted from Warren et al., 40 Experientia 393 (1984) with Protein A-Staph. aureus suspension (Sigma) used as the reagent to separate bound from free ligand. The antiecdysone antiserum was formed by reaction of 20-hydroxyecdysone with carboxymethox- yamine resulting in the corresponding ecdysteroid 6-oxime acid. […] All samples were diluted appropriately in borate buffer pH 8.0 and assayed in duplicate. […]

SMILES | IC50 (0.5 nM ponasterone A (Figure 3B legend), read-out: EC50, displacement of ^3H-ponasterone A from cytosolic receptor extracts) [µM] | fold greater apparent affinity than Example No. 3 (ratio of IC50) [fold] | IC50 [µM] | mode of inhibition of ^3H-ponasterone A binding (Kd increases, Bmax remains the same) | fold lower apparent binding affinity than 20-hydroxyecdysone (Kr cell extracts) [fold]
CC(C)(O)CC[C@@H](O)[C@](C)(O)[C@H]1CC[C@@]2(O)C3=CC(=O)[C@@H]4C[C@@H](O)[C@@H](O)C[C@]4(C)[C@H]3CC[C@]12C [20-hydroxyecdysone, reference compound] | 0.1 | 30 |  |  | 
CC(C)(C)N(NC(=O)c1ccccc1)C(=O)c1ccccc1 [Example No. 3, N'-t-butyl-N,N'-dibenzoylhydrazine] |  |  | 3 | competitive mode of inhibition | 30
